Measurements: patent US9079893B2, “Ureido-pyrazole derivatives for use in the treatment of respiratory syncitial virus (RSV) infection” (Respivert, Ltd., priority 2010, dated 2015)
Read-outs that look alike come from different tables or passages of the source.

Tests used:
[1] = system: RSV F-protein expression in NHBEC; assay: RSV F-protein expression in NHBEC infected with RSV A2 (in vitro RSV virus load); format: cell-based, respiratory syncitial virus (RSV A2); conditions: for NHBEC E-max (%): test conc μg/mL: 0.0016-0.2 (Examples 1, 59), 0.04-0.2 (fluticasone propionate), 10 (ribavirin); for IC50 / inhibition at 0.04 µg/mL: human respiratory syncytial virus, 96 h; for inhibition at 0.04 µg/mL: read-out: % inhibition (at 0.04 μg/mL)
Description: (§1) Normal human bronchial epithelial cells (NHBEC) grown in 96 well plates, were infected at a multiplicity of infection (MOI) of 0.001 with RSV A2 (Strain A2, HPA, Salisbury, UK;) in LHC8 Media: RPMI-1640 (50:50) containing 15 mM magnesium chloride, and incubated for 1 hr at 37° C. to promote adsorption. The cells were then washed with PBS to remove non-infected virus particle and incubated for 4 days in fresh media. As appropriate, cells were pre-incubated with the test compound or DMSO for 2 hr, and then added again after wash with PBS as shown above.
(§2) The cells were fixed with 4% formaldehyde in PBS solution for 20 min, washed with washing buffer: PBS including 0.5% BSA and 0.05% Tween-20) (WB) and incubated with blocking solution (5% condensed milk in PBS) for 1 hr. Cells were then washed with WB and incubated for 1 hr at RT with anti-RSV (2F7) F-fusion protein antibody (mouse monoclonal) (lot 798760, Cat. No. ab43812, Abcam). After washing, cells were incubated with an HRP-conjugated secondary antibody (lot 00053170, Cat. No. P0447, Dako) and then TMB substrate (substrate reagent pack (lot 269472, Cat. No. DY999, R&D Systems, Inc.) was added.
(§3) The reaction was stopped by the addition of 2NH2SO4 (50 μL) and the resultant signal was determined colorimetrically (OD: 450 nm with a reference wavelength of 655 nm) in a microplate reader (Varioskan® Flash, ThermoFisher Scientific). Cells were then washed and a 2.5% crystal violet solution (lot 8656, Cat. No. PL7000, Pro-Lab Diagnostics) was applied for 30 mins. After washing with WB, 100 μL of 1% SDS was added to each well, and plates were shaken lightly on the shaker for 1 hr prior to reading the absorbance at 595 nm. The measured OD450-655 readings were corrected to the cell number by dividing the OD450-655 by the OD595 readings. The percentage inhibition for each well was calculated and the IC50 value was calculated from the concentration-response curve generated by the serial dilutions of compound.

[2] = system: RSV F-protein expression in Hep2 cells; assay: RSV F-protein expression in Hep2 cells infected with RSV; format: cell-based, respiratory syncitial virus (RSV A2); conditions: for Hep2 E-max (%): Hep2 cells, test conc μg/mL: 0.0016-0.2 (Examples 1, 59), 0.04-0.2 (fluticasone propionate), 10 (ribavirin); for IC50: human respiratory syncytial virus, HEp-2, 96 h
Description: as §1, §2, §3
(§4) HBECs obtained from patients with cystic fibrosis (CF-BEC) and Hep2 cells (human larynx epidermoid carcinoma cell line) were also used.

[3] = system: RSV F-protein expression in CF-BEC; assay: RSV F-protein expression in CF-BEC (HBECs from patients with cystic fibrosis) infected with RSV; format: cell-based, respiratory syncitial virus (RSV A2); conditions: for CF-BEC E-max (%): test conc μg/mL: 0.0016-0.2 (Examples 1, 59), 0.04-0.2 (fluticasone propionate), 10 (ribavirin); for IC50: human respiratory syncytial virus, 96 h, read-out: CF-BEC IC50 (nM)
Description: as §1, §2, §3, §4

[4] = system: RSV Memphis 37 induced IL-8 release; assay: RSV Memphis 37 induced IL-8 release in air-liquid interface cultured primary nasal epithelial cells; format: cell-based; conditions: primary 3D cultured nasal epithelial cells, RSV Memphis 37, FIG. 1
Description: Primary nasal epithelial cells, cultured using an air-liquid interface, were purchased from Epithelix Sarl (Geneva, Switzerland). Fresh, warmed media (200 μL) containing either the test compound at the selected concentration or vehicle (DMSO; final concentration of 0.5%) was transferred to the apical chamber, and fresh, warmed media (700 μL) containing either the test compound at the selected concentration or vehicle (DMSO; final concentration of 0.5%) were transferred to the bottom chamber. After incubation for 2 hr, the media in upper well was removed carefully. The following day, fresh, warmed media (200 μL) containing either the test compound at the selected concentration or vehicle (DMSO; final concentration of 0.5%) was transferred to the apical chamber again, and after incubation for 2 hr, the media was removed. On the third day, cells were treated again for 2 hr, and the media was removed.
The cells in the apical well were infected with 50 μL of RSV Memphis 37 virus (Meridian) 2 (producing an MOI of approximately 0.1 at the estimated cell number of 1×10^6/well) and incubated for 1 hr. The apical media was then removed by aspiration and the wells were washed twice with warmed PBS. The plate was incubated at 37° C. […]
IL-8 concentrations were determined using a Duoset ELISA development kit (R&D Systems, Minneapolis, Minn.; FIG. 1)

[5] = system: RSV Memphis 37; assay: RSV titre assay (CPE in Hep2) of air-liquid interface cultured primary nasal epithelial cells; format: cell-based, respiratory syncitial virus (RSV Memphis 37); conditions: primary 3D cultured nasal epithelial cells, RSV Memphis 37, log [TCID50], FIG. 2
Description: Primary nasal epithelial cells, cultured using an air-liquid interface, were purchased from Epithelix Sarl (Geneva, Switzerland). Fresh, warmed media (200 μL) containing either the test compound at the selected concentration or vehicle (DMSO; final concentration of 0.5%) was transferred to the apical chamber, and fresh, warmed media (700 μL) containing either the test compound at the selected concentration or vehicle (DMSO; final concentration of 0.5%) were transferred to the bottom chamber. After incubation for 2 hr, the media in upper well was removed carefully. The following day, fresh, warmed media (200 μL) containing either the test compound at the selected concentration or vehicle (DMSO; final concentration of 0.5%) was transferred to the apical chamber again, and after incubation for 2 hr, the media was removed. On the third day, cells were treated again for 2 hr, and the media was removed. […]
The virus titre was estimated by CPE assay in Hep2 cells as follows: Supernatant (20 μL) was collected and 10-fold serial dilutions were prepared in 5%-FBS DMEM. […] The resultant cytopathic effects (CPE) were assessed by visual inspection 3 days after infection. The amount of virus required to infect 50% of Hep2 cells was calculated for each treatment and is reported as log [TCID50] […]

[6] = system: human RSV A2; assay: RSV virus load in mouse lung; format: in vivo, Balb/c mice; conditions: for Lung virus load (TCID50/g lung tissue ×10^3), day 3: 3 days post RSV infection; for Lung virus load (TCID50/g lung tissue ×10^3), day 5: 5 days post RSV infection; for Lung virus load (TCID50/g lung tissue ×10^3), day 7: 7 days post RSV infection; for inhibition of lung viral load: Day 5 post-infection (peak of virus titre), versus vehicle-dosed animals; for augmentation of viral load at Day 9: Day 9, when virus had been eliminated in vehicle-treated mice
Description: Wild type, specific pathogen-free male Balb/c mice aged 8 weeks and weighing approximately 25 g were obtained from the Animal Resource Centre Pty. Ltd., Australia. On day zero, appropriate animal groups were anaesthetised with the inhalation anaesthetic methoxyfluorane and nasally inoculated with either virus diluent (low protein serum free VPSSM from Invitrogen) or 10^6 TCID50 units of human RSV A2 in a volume of 50 μL. […] Eleven to thirteen animals from each group were sacrificed on days 3, 5, 7 and 9 to enable lung viral load to be determined using a plaque assay (Table 5).

[7] = intra-tracheal 20 μL of 0.1 mg/mL, mean ± SEM

## COCC(=O)Nc1cc(COc2ccc(NC(=O)Nc3cc(C(C)(C)C)nn3-c3ccc(C)cc3)c3ccccc23)ccn1 [Example 1, N-(4-((4-(3-(3-tert-Butyl-1-p-tolyl-1H-pyrazol-5-yl)ureido)naphthalen-1-yloxy)methyl)pyridin-2-yl)-2-methoxy acetamide]
[1]
  NHBEC E-max (%): 51%
  IC50: 40.8 nM
  inhibition at 0.04 µg/mL: 46.8%
[1]; read-out: NHBEC IC50 (nM)
  IC50: 41 nM
[2]
  Hep2 E-max (%): 24%
[3]
  CF-BEC E-max (%): 84%
  IC50: 69 nM
[4]
  inhibition on RSV-induced IL-8 production: strong inhibition
[5]
  inhibition on RSV viral load: strong inhibition
[6]; [7]
  Lung virus load (TCID50/g lung tissue ×10^3), day 3: 66 ± 18 TCID50/g lung tissue ×10^3
  Lung virus load (TCID50/g lung tissue ×10^3), day 5: 1,545 ± 918^ TCID50/g lung tissue ×10^3
  Lung virus load (TCID50/g lung tissue ×10^3), day 7: 7.1 ± 5.2 TCID50/g lung tissue ×10^3
[6]
  inhibition of lung viral load: 67%
  augmentation of viral load at Day 9: did not augment viral load

## Cc1ccc(-n2nc(C(C)(C)C)cc2NC(=O)Nc2ccc(OCCc3ccnc(NC(N)=O)c3)c3ccccc23)cc1 [Example 40, 4-(2-(4-(3-(3-tert-Butyl-1-p-tolyl-1H-pyrazol-5-yl)ureido)naphthalen-1-yloxy)ethyl)-3-(pyridin-2-yl)urea]
[1]
  IC50: 103 nM
  inhibition at 0.04 µg/mL: 24.9%

## COCC(=O)Nc1cc(Oc2ccc(NC(=O)Nc3cc(C(C)(C)C)nn3-c3ccc(C)cc3)c3ccccc23)ccn1 [Example 59, N-(4-(4-(3-(3-tert-Butyl-1-p-tolyl-1H-pyrazol-5-yl)ureido)naphthalen-1-yloxy)pyridin-2-yl)-2-methoxyacetamide]
[1]
  NHBEC E-max (%): 78%
  inhibition at 0.04 µg/mL: 67.5%
[2]
  Hep2 E-max (%): 58%
[2]; read-out: Hep2 IC50 (nM)
  IC50: 289 nM
[3]
  CF-BEC E-max (%): 87%
  IC50: 58 nM
[6]; [7]
  Lung virus load (TCID50/g lung tissue ×10^3), day 3: 81 ±29 TCID50/g lung tissue ×10^3
  Lung virus load (TCID50/g lung tissue ×10^3), day 5: 448 ± 268 TCID50/g lung tissue ×10^3
  Lung virus load (TCID50/g lung tissue ×10^3), day 7: 2.4 ± 0.8 TCID50/g lung tissue ×10^3
[6]; 9 days post RSV infection, intra-tracheal 20 μL of 0.1 mg/mL, mean ± SEM
  Lung virus load (TCID50/g lung tissue ×10^3), day 9: 0.3 ± 0.1 TCID50/g lung tissue ×10^3
[6]
  inhibition of lung viral load: 90%
  augmentation of viral load at Day 9: did not augment viral load

## Cc1ccc(-n2nc(C(C)(C)C)cc2NC(=O)Nc2ccc(Oc3ccnc(NC(=O)N4CCCC4)c3)c3ccccc23)cc1 [Example 65, N-(4-(4-(3-(3-tert-Butyl-1-p-tolyl-1H-pyrazol-5-yl)ureido)naphthalen-1-yloxy)pyridin-2-yl)pyrrolidine-1-carboxamide]
[1]
  inhibition at 0.04 µg/mL: 56.5%

## CNC(=O)Nc1cc(Oc2ccc(NC(=O)Nc3cc(C(C)(C)C)nn3-c3ccc(C)cc3)c3ccccc23)ccn1 [Example 88]
[1]
  inhibition at 0.04 µg/mL: 71.7%

## CCC(=O)O[C@]1(C(=O)SCF)[C@H](C)C[C@H]2[C@@H]3C[C@H](F)C4=CC(=O)C=C[C@]4(C)[C@@]3(F)[C@@H](O)C[C@@]21C [Fluticasone propionate, reference compound]
[1]
  NHBEC E-max (%): −38%
[3]
  CF-BEC E-max (%): 10%

## NC(=O)c1ncn([C@@H]2O[C@H](CO)[C@@H](O)[C@H]2O)n1 [Ribavirin, reference compound]
[1]
  NHBEC E-max (%): 78%
[2]
  Hep2 E-max (%): 93%
[2]; read-out: Hep2 IC50 (footnote a: μM)
  IC50: 9000 nM
[3]
  CF-BEC E-max (%): 53%
